Assay results published in paper PMC9394284, “Discovery of Novel Dual Adenosine A2A and A1 Receptor Antagonists with 1H-Pyrazolo[3,4-d]pyrimidin-6-amine Core Scaffold as Anti-Parkinson’s Disease Agents” (Pharmaceuticals, 2022).

What was measured:
[1] = molecular target: T1, hA2A receptors (Homo sapiens, UniProt P29274); assay: radioligand binding to human A2A receptors, HEK-293 membranes; conditions: average of duplicate experiments
T1 construct: purchased PerkinElmer RBHA2AM
Protocol: The binding affinities of synthesized compounds to human A2A receptors (hA2AR) were measured by assessing competitive binding of ligands to radioligand […] using membrane preparations of human recombinant HEK-293 cells expressing human A2A receptors.
The radioligand-binding assays for adenosine receptors were performed at Eurofins Discovery Services (Panlabs, Taiwan). Briefly, stock solutions of the compounds were prepared in DMSO and further diluted with the incubation buffer to the desired concentration. Final DMSO concentrations in the assay were 1.0%. […] Nonspecific binding was estimated in the presence of 100 μM R(-)-PIA. Membranes were filtered and washed 3 times and the filters were counted to determine specifically bound [^3H]DPCPX. Chemical compounds were screened at 10 μM. […] Nonspecific binding was estimated in the presence of 50.0 μM NECA. […] Nonspecific binding was estimated in the presence of 100 μM NECA. Membranes were filtered and washed 3 times and the filters were counted to determine [^3H]MRS1754 specifically bound. […] Nonspecific binding was estimated in the presence of 1.0 μM IB-MECA.
IC50 values were determined by a nonlinear, least-squares regression analysis using MathIQ^TM (ID Business Solutions Ltd., Guildford, UK). […] The Hill coefficient (nH), which defines the slope of the competitive binding curve, was calculated using MathIQ^TM.

[2] = molecular target: T2, hA1 receptor (Homo sapiens, UniProt P30542); assay: radioligand binding to human A1 receptors, CHO-K1 membranes, [3H]DPCPX; conditions: average of duplicate experiments
T2 sequence (P30542 1-326): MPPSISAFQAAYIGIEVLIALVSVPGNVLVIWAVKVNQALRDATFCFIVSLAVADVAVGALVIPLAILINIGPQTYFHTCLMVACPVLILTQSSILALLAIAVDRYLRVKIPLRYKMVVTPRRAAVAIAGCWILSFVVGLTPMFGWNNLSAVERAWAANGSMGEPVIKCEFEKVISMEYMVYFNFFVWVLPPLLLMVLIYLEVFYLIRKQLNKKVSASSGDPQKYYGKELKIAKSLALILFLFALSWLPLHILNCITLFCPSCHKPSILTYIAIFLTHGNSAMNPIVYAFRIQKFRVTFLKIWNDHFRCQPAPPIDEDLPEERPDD
Protocol: The radioligand-binding assays for adenosine receptors were performed at Eurofins Discovery Services (Panlabs, Taiwan). Briefly, stock solutions of the compounds were prepared in DMSO and further diluted with the incubation buffer to the desired concentration. Final DMSO concentrations in the assay were 1.0%. For adenosine A1 screening, a 10 μg aliquots of membrane preparations from human recombinant CHO-K1 cells stably expressing A1 receptors (CHO-K1-hA1AR clone3, EPDST, R200510) were incubated with 1 nM [^3H]DPCPX in incubation buffer (20 mM HEPES, pH 7.4, 10 mM MgCl2, 100 mM NaCl 1.40 nM) for 90 min at 25 °C. Nonspecific binding was estimated in the presence of 100 μM R(-)-PIA. Membranes were filtered and washed 3 times and the filters were counted to determine specifically bound [^3H]DPCPX. Chemical compounds were screened at 10 μM. For A2A screening, membrane preparations from human recombinant HEK-293 cells stably expressing A2A receptors (PerkinElmer, RBHA2AM) were incubated with 0.05 μM [^3H]CGS-21680 in incubation buffer (50 mM Tris-HCl, pH 7.4, 10 mM MgCl2, 1 mM EDTA, 2 U/mL Adenosine Deaminase) for 90 min at 25 °C. Nonspecific binding was estimated in the presence of 50.0 μM NECA. Membranes were filtered and washed 3 times and the filters were counted to determine [^3H]CGS-21680 specifically bound. For A2B screening, membrane preparations from human recombinant HEK-293 cells stably expressing A2B receptors (PerkinElmer, ES-013-M) were incubated with 1.6 nM [^3H]MRS1754 in incubation buffer (50 mM Tris-HCl, pH 6.5, 5 mM MgCl2, 1 mM EDTA, 0.01 % Bacitracin) for 90 min at 25 °C. Nonspecific binding was estimated in the presence of 100 μM NECA. Membranes were filtered and washed 3 times and the filters were counted to determine [^3H]MRS1754 specifically bound. For A3 screening, membrane preparations from human recombinant CHO-K1 cells stably expressing A3 receptors (PerkinElmer, ES-012-M) were incubated with 0.5 nM [^125I]AB-MECA in incubation buffer (25 mM HEPES, pH 7.4, 5 mM MgCl2, 1 mM CaCl2, 0.1 % BSA) for 60 min at 25 °C. Nonspecific binding was estimated in the presence of 1.0 μM IB-MECA.
IC50 values were determined by a nonlinear, least-squares regression analysis using MathIQ^TM (ID Business Solutions Ltd., Guildford, UK). Where inhibition constants (Ki) were presented, the Ki values were calculated using Cheng and Prusoff equation [18] using the observed IC50 of the compound, the concentration of radioligand employed in the assay, and the historical values for the KD of the ligand (obtained experimentally at Eurofins Panlabs, Inc.). The Hill coefficient (nH), which defines the slope of the competitive binding curve, was calculated using MathIQ^TM.

[3] = solubility (qualitative); type: physicochemical; conditions: CF3 next to aniline, difficulties in forming salt

T1 sequence (P29274 whole entry): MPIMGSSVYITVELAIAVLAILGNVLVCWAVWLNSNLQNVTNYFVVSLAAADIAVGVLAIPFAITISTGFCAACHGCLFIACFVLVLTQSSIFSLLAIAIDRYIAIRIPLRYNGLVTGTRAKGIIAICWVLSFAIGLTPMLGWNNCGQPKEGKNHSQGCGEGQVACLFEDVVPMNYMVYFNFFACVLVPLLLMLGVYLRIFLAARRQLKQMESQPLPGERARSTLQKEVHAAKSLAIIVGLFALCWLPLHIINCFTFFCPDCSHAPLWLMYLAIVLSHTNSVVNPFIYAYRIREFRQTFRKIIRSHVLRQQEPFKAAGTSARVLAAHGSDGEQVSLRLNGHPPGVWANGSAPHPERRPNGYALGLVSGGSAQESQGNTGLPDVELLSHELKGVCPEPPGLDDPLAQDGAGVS

Row | SMILES | Ki [1] | Ki [2] | solubility (in words) [3]
1 | N#Cc1cccc(-c2nc(N)nc3c2cnn3Cc2ccc(N)cc2)c1F [4b, 3-(6-Amino-1-(4-aminobenzyl)-1H-pyrazolo[3,4-d]pyrimidin-4-yl)-2-fluorobenzonitrile] | 0.0194 µM | – | –
2 | N#Cc1ccnc(-c2nc(N)nc3c2cnn3Cc2ccc(N)cc2)c1 [11a, 2-(6-Amino-1-(4-aminobenzyl)-1H-pyrazolo[3,4-d]pyrimidin-4-yl)isonicotinonitrile] | 0.31 µM | 2.47 µM | –
3 | N#Cc1cccc(-c2nc(N)nc3c2cnn3Cc2ccc(N)cc2)n1 [11b, 6-(6-Amino-1-(4-aminobenzyl)-1H-pyrazolo[3,4-d]pyrimidin-4-yl)picolinonitrile] | 0.031 µM | 0.65 µM | –
4 | N#Cc1cncc(-c2nc(N)nc3c2cnn3Cc2ccc(N)cc2)c1 [11c, 5-(6-Amino-1-(4-aminobenzyl)-1H-pyrazolo[3,4-d]pyrimidin-4-yl)nicotinonitrile] | 4.79 µM | 32 µM | –
5 | N#Cc1cc(-c2nc(N)nc3c2cnn3Cc2ccc(N)cc2)ccn1 [11d, 4-(6-Amino-1-(4-aminobenzyl)-1H-pyrazolo[3,4-d]pyrimidin-4-yl)picolinonitrile] | 4.72 µM | 8.53 µM | –
6 | N#Cc1ccnc(-c2nc(N)nc3c2cnn3Cc2ccc(N)cc2F)c1 [11e, 2-(6-Amino-1-(4-amino-2-fluorobenzyl)-1H-pyrazolo[3,4-d]pyrimidin-4-yl)isonicotinonitrile] | 0.12 µM | 0.71 µM | –
7 | N#Cc1cncc(-c2nc(N)nc3c2cnn3Cc2ccc(N)cc2F)c1 [11g, 5-(6-Amino-1-(4-amino-2-fluorobenzyl)-1H-pyrazolo[3,4-d]pyrimidin-4-yl)nicotinonitrile] | 2.64 µM | 32.8 µM | –
8 | N#Cc1cc(-c2nc(N)nc3c2cnn3Cc2ccc(N)cc2F)ccn1 [11h, 4-(6-Amino-1-(4-amino-2-fluorobenzyl)-1H-pyrazolo[3,4-d]pyrimidin-4-yl)picolinonitrile] | 3.19 µM | 28 µM | –
9 | Cc1cc(Cn2ncc3c(-c4cc(C#N)ccn4)nc(N)nc32)ccc1N [11k, 2-(6-Amino-1-(4-amino-3-methylbenzyl)-1H-pyrazolo[3,4-d]pyrimidin-4-yl)isonicotinonitrile] | 0.065 µM | 0.51 µM | –
10 | Cc1cc(Cn2ncc3c(-c4cncc(C#N)c4)nc(N)nc32)ccc1N [11m, 5-(6-Amino-1-(4-amino-3-methylbenzyl)-1H-pyrazolo[3,4-d]pyrimidin-4-yl)nicotinonitrile] | 2.48 µM | 21.2 µM | –
11 | Cc1cc(Cn2ncc3c(-c4ccnc(C#N)c4)nc(N)nc32)ccc1N [11n, 4-(6-Amino-1-(4-amino-3-methylbenzyl)-1H-pyrazolo[3,4-d]pyrimidin-4-yl)picolinonitrile] | 1.15 µM | 21.3 µM | –
12 | N#Cc1ccnc(-c2nc(N)nc3c2cnn3Cc2c(F)cc(N)cc2F)c1 [11p, 2-[6-Amino-1-[(4-amino-2,6-difluoro-phenyl)methyl]pyrazolo[3,4-d]pyrimidin-4-yl]pyridine-4-carbonitrile] | 0.047 µM | 0.38 µM | –
13 | N#Cc1cncc(-c2nc(N)nc3c2cnn3Cc2c(F)cc(N)cc2F)c1 [11r, 5-[6-Amino-1-[(4-amino-2,6-difluoro-phenyl)methyl]pyrazolo[3,4-d]pyrimidin-4-yl]pyridine-3-carbonitrile] | 1.22 µM | 10 µM | –
14 | N#Cc1cc(-c2nc(N)nc3c2cnn3Cc2c(F)cc(N)cc2F)ccn1 [11s, 4-[6-Amino-1-[(4-amino-2,6-difluoro-phenyl)methyl]pyrazolo[3,4-d]pyrimidin-4-yl]pyridine-2-carbonitrile] | 4.92 µM | – | –
15 | CCn1c(=O)c2c(nc(/C=C/c3ccc(OC)c(OC)c3)n2C)n(CC)c1=O [Istradefylline, reference compound] | – | 0.61 µM | –

Next, values leading:

Row | Ki [1] | Ki [2] | solubility (in words) [3] | SMILES
16 | 0.0164 µM | – | – | N#Cc1cccc(-c2nc(N)nc3c2cnn3Cc2ccc(N)cc2)c1 [4a, 3-(6-Amino-1-(4-aminobenzyl)-1H-pyrazolo[3,4-d]pyrimidin-4-yl)benzonitrile]
17 | 0.0106 µM | 0.16 µM | – | N#Cc1cccc(-c2nc(N)nc3c2cnn3Cc2ccc(N)cc2F)n1 [11f, 6-[6-Amino-1-[(4-amino-2-fluoro-phenyl)methyl]pyrazolo[3,4-d]pyrimidin-4-yl]pyridine-2-carbonitrile]
18 | 0.0121 µM | 0.16 µM | – | N#Cc1cccc(-c2nc(N)nc3c2cnn3Cc2ccc(N)cc2F)c1 [11i, 3-(6-Amino-1-(4-amino-2-fluorobenzyl)-1H-pyrazolo[3,4-d]pyrimidin-4-yl)benzonitrile]
19 | 0.0164 µM | 0.063 µM | – | N#Cc1cccc(-c2nc(N)nc3c2cnn3Cc2ccc(N)cc2F)c1F [11j, 3-(6-Amino-1-(4-amino-2-fluorobenzyl)-1H-pyrazolo[3,4-d]pyrimidin-4-yl)-2-fluorobenzonitrile]
20 | 0.00639 µM | 0.18 µM | – | Cc1cc(Cn2ncc3c(-c4cccc(C#N)n4)nc(N)nc32)ccc1N [11l, 6-(6-Amino-1-(4-amino-3-methylbenzyl)-1H-pyrazolo[3,4-d]pyrimidin-4-yl)picolinonitrile]
21 | 0.00684 µM | 0.15 µM | – | N#Cc1cccc(-c2nc(N)nc3c2cnn3Cc2c(F)cc(N)cc2F)n1 [11q, 6-[6-Amino-1-[(4-amino-2,6-difluoro-phenyl)methyl]pyrazolo[3,4-d]pyrimidin-4-yl]pyridine-2-carbonitrile]
22 | 0.00742 µM | 0.05 µM | – | N#Cc1cccc(-c2nc(N)nc3c2cnn3Cc2c(F)cc(N)cc2F)c1 [11t, 3-[6-Amino-1-[(4-amino-2,6-difluoro-phenyl)methyl]pyrazolo[3,4-d]pyrimidin-4-yl]benzonitrile]
23 | 0.00645 µM | 0.03 µM | – | N#Cc1cccc(-c2nc(N)nc3c2cnn3Cc2c(F)cc(N)cc2F)c1F [11u, 3-(6-Amino-1-(4-amino-2,6-difluorobenzyl)-1H-pyrazolo[3,4-d]pyrimidin-4-yl)-2-fluorobenzonitrile]
24 | 0.0102 µM | 0.25 µM | greatly reduced solubility | N#Cc1ccnc(-c2nc(N)nc3c2cnn3Cc2ccc(N)c(C(F)(F)F)c2)c1 [11v, 2-[6-Amino-1-[[4-amino-3-(trifluoromethyl)phenyl]methyl]pyrazolo[3,4-d]pyrimidin-4-yl]pyridine-4-carbonitrile]
25 | 0.00194 µM | 0.049 µM | greatly reduced solubility | N#Cc1cccc(-c2nc(N)nc3c2cnn3Cc2ccc(N)c(C(F)(F)F)c2)c1 [11w, 3-(6-Amino-1-(4-amino-3-(trifluoromethyl)benzyl)-1H-pyrazolo[3,4-d]pyrimidin-4-yl)benzonitrile]
26 | 0.0111 µM | 0.11 µM | – | Cc1cc(Cn2ncc3c(-c4cccc(C#N)c4)nc(N)nc32)ccc1N [compound 8, 3-(6-Amino-1-(4-amino-3-methylbenzyl)-1H-pyrazolo[3,4-d]pyrimidin-4-yl)benzonitrile]
